Data taken from US20060229208A1, “Use of acyl cyclohexandione derivatives in conjunction with ethephon for treating pomaceous fruit” (BASF AKTIENGESELLSCHAFT, priority 2003, published 2006).

What was measured:
[1] = tested on: pome fruit, specifically apples and pears; experiment: Applicant's experiments on floral development in the year after treatment with acylcyclohexanedione growth regulators; format: in vivo
From the text: Thus, D. Sugar, D. C. Elfving and E. A. Mielke report in Acta Hort. […] In the most extreme case, no floral development at all takes place in the year after the treatment.

[2] = tested on: 12-year-old pear trees cv. "Conference" on BA rootstock; experiment: Flowering behavior in pears after treatment with prohexadione-calcium and ethephon (inflorescence count about one year after first application); format: in vivo
Protocol: 1. Flowering Behavior in Pears after Treatment with Prohexadione-calcium and Ethephon
12-year-old pear trees cv. “Conference” on BA rootstock at two different locations were treated first with prohexadione-calcium alone and secondly with a combination of prohexadione-calcium and ethephon. To this end, 4 groups of 5 trees each, which were uniformly distributed in an orchard, were sprayed with an active-ingredient-comprising spray mixture to run-off point (approx. 1000 l/ha). Three applications at intervals of approximately one month were carried out at the first location. At the second location, prohexadione-calcium was applied four times to a part of the groups of trees and three times to another part, the application interval being in each case approximately two weeks. The combination of prohexadione-calcium and ethephon was applied twice, with in each case one application with prohexadione-calcium alone being carried out before and after the combined application. Approximately one year after the first application, the number of inflorescences of untreated trees, of those which have been treated exclusively with prohexadione-calcium and of trees which had been treated with a combination of prohexadione-calcium and ethephon were counted and compared with each other.

[3] = tested on: pear trees; conditions: cited from earlier work

## O=C1CC(C(=O)O)CC(=O)C1=C(O)C1CC1 (centres unmarked) [trinexapac]
[1]
  Floral development in the year after the treatment: markedly reduced floral development

## prohexadione-calcium [ProCa]
[2]; Location 1, ProCa alone 150 g/ha on 15th April, 14th May, 16th June 2002, total 450 g/ha, untreated 183
  Flowering in the subsequent year, April 2003: 137 number of inflorescences/tree
[2]; Location 2, ProCa alone four applications 120/87/87/95 g/ha (12th April, 3rd, 15th, 30th May 2002), total 389 g/ha, untreated 250
  Flowering in the subsequent year, April 2003: 157 number of inflorescences/tree
[2]; Location 2, ProCa alone three applications 120/87/87 g/ha (12th April, 3rd, 15th May 2002), total 294 g/ha, untreated 250
  Flowering in the subsequent year, April 2003: 152 number of inflorescences/tree
[2]; pear trees, Tables 1 and 2
  Floral development in the year following the treatment (summary in words): reduced floral development
[1]
  Floral development in the year after the treatment: markedly reduced floral development
[3]
  Subsequent flowering: reduced subsequent flowering

## CCOC(=O)C1CC(=O)C(=C(O)C2CC2)C(=O)C1 (centres unmarked) [trinexapac-ethyl]
[1]
  Floral development in the year after the treatment: markedly reduced floral development
